Data set [1] in a line: Mouse Pharmacokinetic Studies (50 mg/kg oral gavage, plasma LC-MS/MS). Format: in vivo. As to conditions: male C57BL/6 mice, non-fasted. Here is the method:
Compounds were formulated in 5% DMSO, 5% Solutol, and 90% PBS without Ca and Mg (pH 7.4) at a concentration of […]. Male C57BL/6 mice (n=6/compound) were administered a 50 mg/kg dose of each compound by oral gavage under a non-fasted condition. Blood samples were collected via the Submandibular vein onto K2-EDTA at 0.5, 1, 2, 4, 8 and 24 hours after dosing, and plasma was prepared and stored at −80° C. until analysis. Plasma sample preparation for analysis was done by protein precipitation using acetonitrile (including Verapamil as an internal standard) followed by centrifugation. Compound concentrations were determined in extracted plasma using LC-MS/MS relative to a 12-point standard curve covering the 1 to 4000 nM range. Non-compartmental analysis using Phoenix WinNonlin was used to estimate pharmacokinetic parameters including area under the curve, clearance, and half-life. The administered dose was confirmed by analysis of residual dosing material by UPLC-UV relative to a single point calibration sample.

A further data set deals with Human LAD2 cells. The experiment in a line: Mast Cell Beta-Hexosaminidase Release Assay (LAD2 cells, 500 nM Cortistatin-14). As to conditions: read-out: MRGPRX2 Antagonist Activity. Format: cell-based. Here is the method: Human LAD2 cells (NIH) were maintained in an incubator at 37° C. with 5% CO2 and cultured in StemPro-34 serum-free media (Gibco 10639011) supplemented with 2 mM L-glutamine, 100 U/ml penicillin, […] streptomycin and 100 ng/ml SCF (Invitrogen PEP0860), at a concentration of 2-5×10^5 cells/mL, with hemidepletion every 1-2 weeks.
Cells were transferred to SCF-Free medium at 2.5×10^5 cells/mL and kept in an incubator overnight. On the day of the assay, cells were washed twice in Assay Buffer (final concentrations 10 mM HEPES, 137 mM NaCl, 5.6 mM D-glucose, 2.7 mM KCl, 1 mM MgCl, 1.8 mM CalCl2, 0.4 mM Na2HPO4·7H2O, 0.04% BSA, pH=7.4) and plated in a 96-well v-bottom plate at 20,000 cells per well in 80 μL Assay Buffer. Antagonist compounds solubilized at 10 mM in DMSO were diluted in Assay Buffer to 10× final desired concentrations as a 10-point curve (10 μM final top concentration with 1:3 serial dilutions) and 10 μL added per well. Plates were then incubated for 1 hour at 37° C. Agonists were diluted in Assay Buffer to 10× desired concentrations and 10 μL of the appropriate agonist added to each well. The final concentration of Cortistatin-14 (Tocris 3374) used in antagonist assays was 500 nM. Final concentrations of DMSO were kept consistent across the plate. Plates were then incubated in a warm air oven for 30 minutes at 37° C., followed by centrifugation at 4° C. for 5 minutes at 450×g. 50 μL supernatant from each well was then transferred to a 96-well flat bottom plate containing 100 μL substrate solution per well (3.5 mg/mL p-Nitrophenyl-N-acetyl-o-D-glucosaminide (Sigma 487052) in Citrate Buffer containing a final concentration of 40 mM Citric Acid, 20 mM Na2HPO4·7H2O, pH=4.5). To the cell pellets left in the remaining assay buffer, 150 μL 0.1% Triton-X-100 was then added to each well, resuspended by pipetting up and down, and 50 μL cell lysates transferred to a second 96-well flat bottom plate containing 100 μL substrate solution per well. Plates containing transferred supernatant and cell lysates were then incubated in a warm air oven for 90 minutes at 37° C. After incubation, 50 μL of 400 mM Glycine buffer (pH 10.7) was added into each well and the plate was read on a Molecular Devices SpectraMax iD5 plate reader (absorbance at 405 nm with reference filter at 620 nm). After background subtraction, the percentage degranulation (percent beta-hexosaminidase release) was calculated as 100×(supernatant values)/(supernatant+lysate values), followed by analysis using GraphPad Prism software to calculate an IC50 value for each compound.
The activity ranges are denoted as follows: “+++++” denotes antagonist activity <100 nM; “++++” denotes antagonist activity between 100 and 500 nM; “+++” denotes activity between 501 and 1000 nM; “++” denotes activity between 1001 and 2500 nM; and “+” denotes activity >2500 nM.

The nature of data set [2]: Solubility Studies in FaSSIF, FeSSIF, FaSSGF (24 hours, room temperature, UPLC-UV). Type of data set: physicochemical. The following applies: kinetic from dmso stock, 24 hours at room temperature. On the procedure:
Media according to Biorelevant Media protocols was prepared. 10 μL of 10 mM in DMSO stock solutions of test compounds was added to 96-well deep plate. 490 μL of FaSSIF, FeSSIF, or FaSSGF was then added into appropriate wells of 96-well deep plate. The plate was vortexed for 2 minutes then placed on a plate shaker for 24 hours at room temperature. The plate was centrifuged for 20 minutes, then supernatant was collected and filtered with […] syringe filter into UPLC vials for injection into UPLC-UV system. Concentration was calculated with a 3-point standard curve.

The target in the next data set is T1, human MRGPRX2 (Homo sapiens, UniProt Q96LB1).
T1 construct: expressed in transfected cells; host or cells: CHO cells, stably transfected (G418 and Hygromycin B selection)
T1 sequence (Q96LB1 1-330): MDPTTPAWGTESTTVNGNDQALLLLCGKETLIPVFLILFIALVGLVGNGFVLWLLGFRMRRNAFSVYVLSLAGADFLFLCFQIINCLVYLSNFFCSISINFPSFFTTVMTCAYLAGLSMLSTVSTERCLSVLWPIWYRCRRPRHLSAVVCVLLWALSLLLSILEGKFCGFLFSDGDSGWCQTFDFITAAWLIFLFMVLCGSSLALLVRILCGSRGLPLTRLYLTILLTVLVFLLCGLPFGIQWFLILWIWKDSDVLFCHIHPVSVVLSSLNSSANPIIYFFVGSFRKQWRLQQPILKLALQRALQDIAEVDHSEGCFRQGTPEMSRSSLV
Briefly: MRGPRX2 activity: IP-One Gq HTRF assay in CHO cells, antagonism versus 0.3 uM Cortistatin-14. The following applies: versus 0.3 uM Cortistatin-14 agonist, CHO cells expressing human MRGPRX2, read-out: MRGPRX2 Antagonist Activity. Format: cell-based. Put shortly:
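CHO cells stably expressing human MRGPRX2 were treated with a 10-point compound curve (30 uM top, 1:3) plus 0.3 μM Cortistatin-14 in LiCl-containing Tris buffer, pH 8. Incubation was 1 h at 37 °C then 1 h at room temperature; IP-1 was detected by HTRF and IC50 came from the HTRF ratio.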

The mark [3] stands for this setting: fassgf or other biorelevant, solubility in FaSSGF, read-out: FaSSGF.
[4] abbreviates: solubility in FaSSIF, read-out: FaSSIF.
Setting [5] is: solubility in FeSSIF, read-out: FeSSIF.
Setting [6] is: male, C57BL/6, mouse, po, 50 mg/kg.
[7] abbreviates: Homo sapiens, LAD2, Mast Cell Beta-Hexosaminidase Release Assay.

pIC50: −log10 of the molar value. Values after ≈ are worked out from the molar mass of the structure shown. Read-outs that look alike come from different tables or passages of the source.

In general, Cmax refers to the maximum level reached in the sampled fluid or tissue. In general, half-life refers to how long it takes for the measured level to halve. Higher therefore signals slow decline.

Consider `CC(c1ccccc1F)c1c(F)ccc2c1NC(NCc1cccc(F)c1)=NS2(=O)=O` (single isomer, unassigned) [Compound 10-5B], for which the maximum concentration (Cmax) in data set [1] (50 mg/kg) came to 7.1 µM. In data set [1] (50 mg/kg), this molecule yielded a T1/2 of 2.5 h. In data set [1] (50 mg/kg), this molecule returned a TBC of 12 mL/min/kg. Also, the pIC50 with Human LAD2 cells (Mast Cell Beta-Hexosaminidase Release Assay) and at human MRGPRX2 was > 7.00 each time. Besides, the solubility kinetic at 24 h was < 3.1 µM in data set [2] (setting [3]), 158 µM (≈ 70.4 µg/mL) in data set [2] (setting [4]) and 136 µM (≈ 60.6 µg/mL) in data set [2] (setting [5]).
In data set [1], `O=S1(=O)N=C(NCc2ncccc2F)Nc2c(Oc3ccccc3Cl)cc(F)cc21` [Compound 1-264, 5-(2-chlorophenoxy)-7-fluoro-3-(((3-fluoropyridin-2-yl)methyl)amino)-4H-benzo[e][1,2,4]thiadiazine 1,1-dioxide] displayed a TBC of 32 mL/min/kg. The molecule further registered a Cmax in data set [1] (setting [6]) of 1.1 µM. This molecule also had a half-life in data set [1] (setting [6]) of 3.8 h. The pIC50 in the data set on Human LAD2 cells (setting [7]) and on human MRGPRX2 was > 7.00 throughout. The solubility kinetic at 24 h in data set [2] (setting [3]), in data set [2] (setting [4]) and in data set [2] (setting [5]) was < 12.5 µM in each case.
Consider `O=S1(=O)N=C(NCc2ncccc2F)Nc2c1ccc(F)c2Oc1ccccc1Cl` [Compound 2-1, 5-(2-chlorophenoxy)-6-fluoro-3-(((3-fluoropyridin-2-yl)methyl)amino)-4H-benzo[e][1,2,4]thiadiazine 1,1-dioxide], for which the TBC in data set [1] amounted to 8.8 mL/min/kg. The molecule further came in with a Cmax in data set [1] (setting [6]) of 11 µM. The molecule further showed a half-life in data set [1] (setting [6]) of 2.8 h. The pIC50 is 6.30 to 7.00 with Human LAD2 cells (setting [7]) and > 7.00 on human MRGPRX2. The solubility kinetic at 24 h in data set [2] (setting [3]), in data set [2] (setting [4]) and in data set [2] (setting [5]) was < 12.5 µM throughout.
Regarding `CC(c1ccccc1F)c1c(F)ccc2c1NC(NCc1ncccc1F)=NS2(=O)=O` (stereo not shown) [Compound 9-1, 6-fluoro-5-(1-(2-fluorophenyl)ethyl)-3-(((3-fluoropyridin-2-yl)methyl)amino)-4H-benzo[e][1,2,4]thiadiazine 1,1-dioxide], in data set [1], the TBC amounted to 13 mL/min/kg. Besides, the peak level in data set [1] (setting [6]) (Cmax) was 8.7 µM. In data set [1] (setting [6]), this molecule gave a half-life of 1.8 h. The pIC50 in the data set with Human LAD2 cells (setting [7]) and on human MRGPRX2 was > 7.00 throughout. The results for the solubility kinetic at 24 h in data set [2] (setting [3]), in data set [2] (setting [4]) and in data set [2] (setting [5]) were 19 µM (≈ 8.48 µg/mL), 114 µM (≈ 50.9 µg/mL) and 74 µM (≈ 33 µg/mL), respectively.
For `C[C@@H](c1ccccc1F)c1c(F)c(F)cc2c1NC(NCc1ncccc1F)=NS2(=O)=O` [Compound 10-6A, (S)-6,7-difluoro-5-(1-(2-fluorophenyl)ethyl)-3-(((3-fluoropyridin-2-yl)methyl)amino)-4H-benzo[e][1,2,4]thiadiazine 1,1-dioxide], the TBC in data set [1] was 11 mL/min/kg. Further, in data set [1] (setting [6]), the highest level (Cmax) was 11 µM. In data set [1] (setting [6]), the half-life is 2.1 h. Also, the pIC50 in the data set with Human LAD2 cells (setting [7]) and on human MRGPRX2 was > 7.00 each time. Moreover, the results for the solubility kinetic at 24 h in data set [2] (setting [3]), in data set [2] (setting [4]) and in data set [2] (setting [5]) were 27 µM (≈ 12.5 µg/mL), 30 µM (≈ 13.9 µg/mL) and 178 µM (≈ 82.7 µg/mL), respectively.

For the origin of these results see US20250170141A1, “MRGPRX2 MODULATORS AND RELATED METHODS OF TREATMENT” (Escient Pharmaceuticals, Inc., priority 2023, published 2025).
